Laboratory results as given in US8653143B2, “Use of panduratin derivative or Boesenbergia pandurata extract” (Newtree Co., Ltd., priority 2008, dated 2014).

Columns and labels:
Format in all cases: in vivo, C57BL/6 mice
[1] = test system: mice in which obesity is induced with a high-fat diet; assay: Body fat (abdominal, perirenal, epididymal) in high-fat diet obese mice treated with panduratin derivatives; conditions: administration for 8 weeks, same manner as panduratin A (50 mg/kg)
Experimental: (§1) 3-week-old C57BL/6 mice were accustomed for a week, and a high-fat diet (Product # D12492, Research Diet Inc., New Brunswick, N.J., USA) was provided for 6 weeks to induce obesity. Then, the mice were randomly divided into 3 groups, 12 per each group. For the test group, panduratin A suspended in 0.25% carboxymethyl cellulose was administered once a day at regular hours for 8 weeks, with an administration dose of 50 mg/kg body weight. For comparison, 0.25% carboxymethyl cellulose only (control) of the same amount as that for the test group or sibutramine suspended in 0.25% carboxymethyl cellulose (5 mg/kg body weight) was orally administered. After administration for 8 weeks, the mice were fasted for at least 12 hours. After cutting open the abdomen, perirenal fat and epididymal fat were taken out, washed with physiological saline, dried, and then weighed.
(§2) The effect of isopanduratin A prepared in Example 3 on body weight and body fat decrease was investigated in the same manner as in Examples 5 and 6. After administration for 8 weeks, there was no difference between the test group and other groups in food intake.
(§3) The effect of 4-hydroxypanduratin A prepared in Example 4 on body weight and body fat decrease was investigated in the same manner as in Examples 5 and 6. After administration for 8 weeks, there was no difference between the 4-hydroxypanduratin-administered test group and other groups in food intake.

[2] = test system: mice in which obesity is induced with a high-fat diet; assay: Body weight and food intake of high-fat diet obese mice treated with panduratin derivatives; conditions: for food intake, test group versus other groups: high-fat diet obese C57BL/6 mice; for body weight increase after 8 weeks: high-fat diet control about 32%
Description: as §1, with “Mice in which obesity is induced with a high-fat diet were selected as a model to investigate the obesity-relieving effect of panduratin A prepared in Example 2. 3-week-old” for “3-week-old”, “Then, food intake and body weight of” for “After administration for 8 weeks,”, “measured every week,” for “fasted”, “8 weeks.” for “at least 12 hours. After cutting open the abdomen, perirenal fat and epididymal fat were taken out, washed with physiological saline, dried, and then weighed.”
as §2, §3

[3] = test system: mice in which obesity is induced with a high-fat diet; assay: Body weight and food intake of high-fat diet obese mice treated with Boesenbergia pandurata extract; conditions: sibutramine 5 mg/kg orally for 8 weeks; high-fat diet control about 33%
Description: Mice in which obesity is induced with a high-fat diet were selected as a model to investigate the obesity-relieving effect of the Boesenbergia pandurata extract prepared in Example 1. 4-week-old C57BL/6 mice were accustomed for a week, and a high-fat diet (Product # D12492, Research Diet Inc., New Brunswick, N.J., USA) was provided for 6 weeks to induce obesity. Then, the mice were randomly divided into 3 groups, 8 per each group. For the test group, Boesenbergia pandurata extract suspended in 0.25% carboxymethyl cellulose was administered once a day at regular hours for 8 weeks, with an administration dose of 200 mg/kg body weight. For comparison, 0.25% carboxymethyl cellulose only (control) of the same amount as that for the test group or sibutramine suspended in 0.25% carboxymethyl cellulose (5 mg/kg body weight) was orally administered. Then, food intake and body weight of the mice were measured every week, for 8 weeks.

[4] = test system: mice in which obesity is induced with a high-fat diet; assay: Serum total cholesterol, triglyceride, total lipid and leptin in high-fat diet obese mice; conditions: sibutramine 5 mg/kg orally for 8 weeks
Experimental: as §1, with “blood was” for “perirenal fat and epididymal fat were”, “from the heart. The blood was centrifuged at 2,800 rpm at 4° C. for 30 minutes to separate the serum. The separated serum was stored at −70° C.” for “out, washed with physiological saline, dried, and then weighed.”
Total cholesterol level in the serum was determined by measuring absorbance at 500 nm using a standard enzyme assay kit. Serum triglyceride level was determined by measuring absorbance at 546 nm using a glycerol phosphate oxidase assay kit. Serum total lipid level was determined by measuring absorbance at 540 nm by the Frings method. Serum leptin level was determined by radioimmunoassay (RIA) using a mouse leptin RIA kit (Linco Research, Inc. USA).

[5] = 50 mg/kg body weight once a day for 8 weeks

SMILES: CC(C)=CC[C@@H]1C(C)=CC[C@@H](c2ccccc2)[C@@H]1C(=O)c1c(O)cc(O)cc1O [4-hydroxypanduratin A]
- decrease of epididymal fat weight as compared to the high-fat diet control group [1]: 46%
- decrease of perirenal fat weight as compared to the high-fat diet control group [1]: 33%
- food intake, test group versus other groups [2, 5]: no difference
- body weight increase after 8 weeks [2, 5]: ~13%

SMILES: COc1cc(O)cc(O)c1C(=O)[C@@H]1[C@H](CC=C(C)C)C(C)=CC[C@H]1c1ccccc1 [isopanduratin A, (4,6-dihydroxy-2-methoxyphenyl)[3-methyl-2-(3-methylbut-2-enyl)-6-phenylcyclohex-3-enyl]methanone]
- decrease of epididymal fat weight as compared to the high-fat diet control group [1]: 32%
- decrease of perirenal fat weight as compared to the high-fat diet control group [1]: 25%
- food intake, test group versus other groups [2, 5]: no difference
- body weight increase after 8 weeks [2, 5]: ~17%

SMILES: CC(C)CC(N(C)C)C1(c2ccc(Cl)cc2)CCC1 (stereo not shown) [sibutramine]
- body weight increase after 8 weeks [3]: about 27%
- body weight increase after 8 weeks ([2]; sibutramine 5 mg/kg body weight orally for 8 weeks): about 20%
- total cholesterol level in the serum ([4]; control 140.73±16.47): 122.4 ± 22.6 mg/dL
- serum triglyceride level ([4]; control 154.36±27.02): 150.2 ± 20.19 mg/dL
- total lipid level in the serum ([4]; control 555.18±80.86): 493.2 ± 111.9 mg/dL
